In ChEMBL document CHEMBL5518240 (J Med Chem, 2024):
The source made the active and inactive calls. The calls are words filed in the database; no cut-off is given here.

Key:
[1] = molecular target: T1, Protein cereblon/CREB-binding protein (Homo sapiens, UniProt Q92793+Q96SW2); test: PROTAC activity at CBP/CRBN in human VCaP cells assessed as protein degradation incubated for 4 hrs by Western blot analysis; type: cell-based
[2] = molecular target: T2, Protein cereblon/Histone acetyltransferase p300 (Homo sapiens, UniProt Q09472+Q96SW2); test: PROTAC activity at p300/CRBN in human VCaP cells assessed as protein degradation incubated for 4 hrs by Western blot analysis; type: cell-based
[3] = molecular target: T2, Protein cereblon/Histone acetyltransferase p300; test: PROTAC activity at p300/CRBN in human VCaP cells assessed as maximal protein degradation at 1 uM incubated for 4 hrs by Western blot analysis relative to control; type: cell-based
[4] = molecular target: T1, Protein cereblon/CREB-binding protein; test: PROTAC activity at CBP/CRBN in AR positive human VCaP cells assessed as maximal protein degradation at 0.15 nM incubated for 4 hrs by Western blot analysis relative to control; type: cell-based
Target sequence in this assay (Q92793 2-2442 limits assumed): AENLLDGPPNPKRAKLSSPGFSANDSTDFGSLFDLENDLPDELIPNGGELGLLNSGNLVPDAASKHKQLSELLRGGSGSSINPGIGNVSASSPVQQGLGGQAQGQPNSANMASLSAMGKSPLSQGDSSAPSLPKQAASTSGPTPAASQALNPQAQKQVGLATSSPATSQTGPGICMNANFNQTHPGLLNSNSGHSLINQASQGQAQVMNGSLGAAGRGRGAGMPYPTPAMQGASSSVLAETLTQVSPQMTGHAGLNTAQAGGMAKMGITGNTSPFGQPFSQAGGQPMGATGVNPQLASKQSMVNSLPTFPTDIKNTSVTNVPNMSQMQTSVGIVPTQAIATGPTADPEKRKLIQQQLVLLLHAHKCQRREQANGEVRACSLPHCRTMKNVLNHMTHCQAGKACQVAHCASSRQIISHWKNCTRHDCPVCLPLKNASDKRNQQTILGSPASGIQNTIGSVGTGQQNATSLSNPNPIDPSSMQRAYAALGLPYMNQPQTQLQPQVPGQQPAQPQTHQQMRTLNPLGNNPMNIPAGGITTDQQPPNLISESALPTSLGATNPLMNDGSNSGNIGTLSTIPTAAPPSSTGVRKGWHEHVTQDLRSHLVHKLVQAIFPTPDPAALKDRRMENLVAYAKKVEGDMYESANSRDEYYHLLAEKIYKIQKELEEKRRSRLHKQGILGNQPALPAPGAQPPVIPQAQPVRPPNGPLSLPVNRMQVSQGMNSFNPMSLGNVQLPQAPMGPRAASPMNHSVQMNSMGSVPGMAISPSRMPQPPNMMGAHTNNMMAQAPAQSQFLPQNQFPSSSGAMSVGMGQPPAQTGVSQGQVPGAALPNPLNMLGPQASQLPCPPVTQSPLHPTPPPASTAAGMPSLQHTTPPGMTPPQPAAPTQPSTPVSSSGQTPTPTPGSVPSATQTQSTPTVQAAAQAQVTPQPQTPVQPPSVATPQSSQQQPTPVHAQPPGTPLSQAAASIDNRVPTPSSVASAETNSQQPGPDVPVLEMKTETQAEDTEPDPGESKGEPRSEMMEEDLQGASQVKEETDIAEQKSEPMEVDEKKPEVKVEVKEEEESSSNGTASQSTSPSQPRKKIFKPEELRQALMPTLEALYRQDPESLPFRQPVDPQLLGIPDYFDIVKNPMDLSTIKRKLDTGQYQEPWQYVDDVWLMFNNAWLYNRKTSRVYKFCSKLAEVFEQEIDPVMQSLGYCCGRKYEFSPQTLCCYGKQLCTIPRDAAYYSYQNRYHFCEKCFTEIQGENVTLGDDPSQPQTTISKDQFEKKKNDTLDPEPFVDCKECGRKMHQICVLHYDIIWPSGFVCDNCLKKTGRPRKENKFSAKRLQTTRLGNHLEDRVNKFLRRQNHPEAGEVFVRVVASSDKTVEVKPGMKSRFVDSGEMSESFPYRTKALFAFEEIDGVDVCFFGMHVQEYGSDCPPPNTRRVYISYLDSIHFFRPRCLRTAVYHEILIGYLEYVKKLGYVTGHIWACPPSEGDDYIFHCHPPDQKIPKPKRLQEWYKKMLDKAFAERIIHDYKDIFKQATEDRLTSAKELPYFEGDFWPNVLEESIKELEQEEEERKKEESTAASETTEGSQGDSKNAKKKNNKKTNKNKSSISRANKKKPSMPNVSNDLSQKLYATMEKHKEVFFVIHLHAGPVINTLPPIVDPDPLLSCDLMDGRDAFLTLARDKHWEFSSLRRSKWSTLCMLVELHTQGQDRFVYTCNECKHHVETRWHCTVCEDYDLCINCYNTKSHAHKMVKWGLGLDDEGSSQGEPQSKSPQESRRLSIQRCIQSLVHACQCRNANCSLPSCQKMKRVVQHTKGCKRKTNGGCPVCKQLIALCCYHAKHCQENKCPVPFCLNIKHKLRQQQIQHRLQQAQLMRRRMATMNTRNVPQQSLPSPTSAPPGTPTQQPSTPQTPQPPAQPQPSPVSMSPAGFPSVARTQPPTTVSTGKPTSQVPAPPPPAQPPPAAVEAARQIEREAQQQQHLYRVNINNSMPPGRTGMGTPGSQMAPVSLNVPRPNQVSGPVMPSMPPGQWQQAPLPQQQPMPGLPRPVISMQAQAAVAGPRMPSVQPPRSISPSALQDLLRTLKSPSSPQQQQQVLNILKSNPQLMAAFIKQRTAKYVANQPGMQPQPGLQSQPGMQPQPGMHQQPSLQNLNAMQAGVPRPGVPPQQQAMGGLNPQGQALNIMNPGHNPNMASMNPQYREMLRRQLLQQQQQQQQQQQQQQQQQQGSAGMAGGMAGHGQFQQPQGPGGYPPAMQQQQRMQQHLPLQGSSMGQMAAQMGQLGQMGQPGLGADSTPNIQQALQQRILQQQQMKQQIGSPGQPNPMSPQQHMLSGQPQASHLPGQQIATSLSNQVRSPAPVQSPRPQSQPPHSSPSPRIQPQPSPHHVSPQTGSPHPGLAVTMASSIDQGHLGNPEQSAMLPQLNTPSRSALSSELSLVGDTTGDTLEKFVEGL
Target sequence in this assay (Q96SW2 whole entry partner): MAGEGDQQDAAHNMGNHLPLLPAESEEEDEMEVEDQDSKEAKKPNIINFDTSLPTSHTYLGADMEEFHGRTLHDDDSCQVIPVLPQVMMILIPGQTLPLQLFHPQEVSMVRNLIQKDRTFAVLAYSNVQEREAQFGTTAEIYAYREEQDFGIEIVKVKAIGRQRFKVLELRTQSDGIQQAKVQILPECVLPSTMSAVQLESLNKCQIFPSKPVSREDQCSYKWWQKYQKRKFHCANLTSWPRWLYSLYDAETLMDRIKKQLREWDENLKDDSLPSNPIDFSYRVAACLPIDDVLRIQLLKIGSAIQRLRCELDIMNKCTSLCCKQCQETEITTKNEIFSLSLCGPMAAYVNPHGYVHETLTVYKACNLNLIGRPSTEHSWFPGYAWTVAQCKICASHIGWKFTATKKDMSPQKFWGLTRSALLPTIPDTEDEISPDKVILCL

[5] = molecular target: T1, Protein cereblon/CREB-binding protein; test: PROTAC activity at CBP/CRBN in AR positive human VCaP cells assessed as maximal protein degradation at 1.4 nM incubated for 4 hrs by Western blot analysis relative to control; type: cell-based
Target sequence in this assay (Q92793 2-2442 limits assumed): as the sequence (Q92793 2-2442 limits assumed) above
Target sequence in this assay (Q96SW2 whole entry partner): as the sequence (Q96SW2 whole entry partner) above

[6] = molecular target: T1, Protein cereblon/CREB-binding protein; test: PROTAC activity at CBP/CRBN in AR positive human VCaP cells assessed as maximal protein degradation at 111.1 nM incubated for 4 hrs by Western blot analysis relative to control; type: cell-based
Target sequence in this assay (Q92793 2-2442 limits assumed): as the sequence (Q92793 2-2442 limits assumed) above
Target sequence in this assay (Q96SW2 whole entry partner): as the sequence (Q96SW2 whole entry partner) above

[7] = molecular target: T1, Protein cereblon/CREB-binding protein; test: PROTAC activity at CBP/CRBN in AR positive human VCaP cells assessed as maximal protein degradation at 1000 nM incubated for 4 hrs by Western blot analysis relative to control; type: cell-based
Target sequence in this assay (Q92793 2-2442 limits assumed): as the sequence (Q92793 2-2442 limits assumed) above
Target sequence in this assay (Q96SW2 whole entry partner): as the sequence (Q96SW2 whole entry partner) above

[8] = molecular target: T2, Protein cereblon/Histone acetyltransferase p300; test: PROTAC activity at p300/CRBN in AR positive human VCaP cells assessed as maximal protein degradation at 1.4 nM incubated for 4 hrs by Western blot analysis relative to control; type: cell-based
[9] = molecular target: T2, Protein cereblon/Histone acetyltransferase p300; test: PROTAC activity at p300/CRBN in AR positive human VCaP cells assessed as maximal protein degradation at 4.1 nM incubated for 4 hrs by Western blot analysis relative to control; type: cell-based
[10] = molecular target: T2, Protein cereblon/Histone acetyltransferase p300; test: PROTAC activity at p300/CRBN in AR positive human VCaP cells assessed as maximal protein degradation at 12.3 nM incubated for 4 hrs by Western blot analysis relative to control; type: cell-based
[11] = molecular target: T2, Protein cereblon/Histone acetyltransferase p300; test: PROTAC activity at p300/CRBN in AR positive human VCaP cells assessed as maximal protein degradation at 333 nM incubated for 4 hrs by Western blot analysis relative to control; type: cell-based
[12] = molecular target: T2, Protein cereblon/Histone acetyltransferase p300; test: PROTAC activity at p300/CRBN in AR positive human VCaP cells assessed as maximal protein degradation at 1000 nM incubated for 4 hrs by Western blot analysis relative to control; type: cell-based
[13] = Apparent permeability coefficient across apical to basolateral side in human Caco-2 cells at 10 uM incubated for 120 mins by LC-MS/MS analysis; type: ADME, cell-based; details: caco-2, 2 h
[14] = Apparent permeability coefficient across basolateral to apical side in human Caco-2 cells at 10 uM incubated for 120 mins by LC-MS/MS analysis; type: ADME, cell-based; details: caco-2, 2 h
[15] = molecular target: T1, Protein cereblon/CREB-binding protein; test: PROTAC activity at CBP/CRBN in human 22Rv1 cells assessed as protein degradation incubated for 4 hrs by Western blot analysis; type: cell-based
[16] = molecular target: T2, Protein cereblon/Histone acetyltransferase p300; test: PROTAC activity at p300/CRBN in human 22Rv1 cells assessed as protein degradation incubated for 4 hrs by Western blot analysis; type: cell-based
VCaP [17] = test: Antiproliferative activity against AR positive human VCaP cells assessed inhibition of cell growth measured after 4 days by CellTiter-Glo Luminescent cell viability assay; type: functional, cell-based; details: 96 h
VCaP [18] = test: Potency index, ratio of ARV-110 IC50 to test compound IC50 for antiproliferative activity against AR positive human VCaP cells assessed inhibition of cell growth measured after 4 days by CellTiter-Glo Luminescent cell viability assay; type: functional; details: time 4 day
CWR22R [19] = test: Effect on other proteins on global level in human 22Rv1 cells at 100 nM incubated for 4 hrs by multiplexed quantitative proteomics analysis relative to control; type: functional, cell-based
VCaP [20] = test: Reduction in AR gene expression in AR positive human VCaP cells assessed as reduction in mRNA level measured after 6 hrs by qRT-PCT analysis relative to control; type: functional, cell-based; details: dose 0.1-1000 nM
LNCaP [21] = test: Reduction in AR gene expression in AR positive human LNCaP cells assessed as reduction in mRNA level measured after 6 hrs by qRT-PCT analysis relative to control; type: functional, cell-based; details: dose 0.1-1000 nM
LNCaP [22] = test: Reduction in KLK3 gene expression in AR positive human LNCaP cells assessed as reduction in mRNA level measured after 6 hrs by qRT-PCT analysis relative to control; type: functional, cell-based; details: dose 0.1-1000 nM
CWR22R [23] = test: Reduction in KLK3 gene expression in AR positive human 22Rv1 cells assessed as reduction in mRNA level measured after 6 hrs by qRT-PCT analysis relative to control; type: functional, cell-based; details: dose 0.1-1000 nM
VCaP [24] = test: Reduction in c-Myc gene expression in AR positive human VCaP cells assessed as reduction in mRNA level measured after 6 hrs by qRT-PCT analysis relative to control; type: functional, cell-based; details: dose 0.1-1000 nM
[25] = Reduction in KLK3 gene expression in AR positive human VCaP cells assessed as reduction in mRNA level at 1 nM measured after 6 hrs by qRT-PCT analysis relative to control; type: functional
[26] = Reduction in AR gene expression in AR positive human LNCaP cells assessed as reduction in mRNA level at 10 nM measured after 6 hrs by qRT-PCT analysis relative to control; type: functional
[27] = molecular target: T1, Protein cereblon/CREB-binding protein; test: In vivo PROTAC activity at p300/CRBN in human VCaP cells xenografted in CB17 SCID mouse assessed as reduction in CBP protein at 3 mg/kg, po measured after 24 hrs; type: functional, organism-based; design: scale not given: the % may be the effect or the level left
Target sequence in this assay (Q92793 2-2442 limits assumed): as the sequence (Q92793 2-2442 limits assumed) above
Target sequence in this assay (Q96SW2 whole entry partner): as the sequence (Q96SW2 whole entry partner) above

[28] = Plasma concentration in CB17 SCID mouse xenografted with human VCaP cells at 1 mg/kg, po measured after 3 hrs by LC-MS/MS analysis; type: ADME, organism-based
[29] = Plasma concentration in CB17 SCID mouse xenografted with human VCaP cells at 1 mg/kg, po measured after 24 hrs by LC-MS/MS analysis; type: ADME, organism-based
[30] = Plasma concentration in CB17 SCID mouse xenografted with human VCaP cells at 3 mg/kg, po measured after 3 hrs by LC-MS/MS analysis; type: ADME, organism-based
[31] = Drug exposure in CB17 SCID mouse xenografted with human VCaP cells assessed compound concentration in tumor at 1 mg/kg, po measured after 3 hrs by LC-MS/MS analysis; type: ADME, organism-based, Neoplasm; details: read-out: Drug uptake
[32] = Drug exposure in CB17 SCID mouse xenografted with human VCaP cells assessed compound concentration in tumor at 3 mg/kg, po measured after 24 hrs by LC-MS/MS analysis; type: ADME, organism-based, Neoplasm; details: in vivo, BLD = below limit of detection
VCaP [33] = test: Antitumor activity against human VCaP cells xenografted in CB17 SCID mouse model assessed as tumor growth inhibition at 1 mg/kg, po qd scheduled 5 days in a week measured on day 63; type: functional; details: 1512 h, time 63 day, read-out: TGI
[34] = Toxicity in CB17 SCID mouse xenografted with human VCaP cells assessed as weight loss at 0.3 to 1 mg/kg, po qd scheduled 5 days in a week measured on day 63; type: organism-based; details: in vivo, 1512 h, dose 0.3-1 mg/kg, time 63 day

CC(=O)N1CCc2c(c(N3CCCc4cc(-c5cnn(C)c5)c(C(F)F)cc43)nn2[C@H]2CC[C@H](CN3CCN(c4ccc5c(c4)C(=O)N(C4CCC(=O)NC4=O)C5=O)CC3)CC2)C1 (some centres undefined)
DC50 [1]: 0.3 nM | DC50 [2]: 0.2 nM | Emax [3]: > 95% | Activity [4]: 15% | Activity [5]: 91% | Activity [6]: 94% | Activity [7]: 51% | Activity [8]: 97% | Activity [9]: 100% | Activity [10]: 100% | Activity [11]: 94% | Activity [12]: 75% | Papp [13]: 2.8 10^-6 cm/s | Papp [14]: 2.3 10^-6 cm/s | DC50 [15]: 0.2 nM | DC50 [16]: 0.4 nM | IC50 (VCaP [17]): 2 nM | Ratio IC50 (VCaP [18]): >50 | Activity (CWR22R [19]): inactive | inhibition (VCaP [20]): Dose-Dependent Effect | inhibition (LNCaP [21]): Dose-Dependent Effect | inhibition (LNCaP [22]): Dose-Dependent Effect | inhibition (CWR22R [23]): Dose-Dependent Effect | inhibition (VCaP [24]): Dose-Dependent Effect | inhibition at 0.001 µM [25]: 57% | inhibition at 0.01 µM [26]: 67% | Activity [27]: > 95% | concentration at 3 h [28]: 95 ng/mL | concentration at 24 h [29]: 16 ng/mL | concentration at 3 h [30]: 355 ng/mL | concentration at 3 h [31]: 30 ng/mL | Drug uptake [32]: Bld | inhibition in vivo at 1 mg/kg (VCaP [33]): 87% | Activity [34]: Non-Toxic
